SMILES strings stand for the structures. Active and inactive are the calls of the source. The rule behind the calls is not given here.

This is an account of results in ChEMBL document CHEMBL1140841, “Synthesis and biological evaluation of trimethyl-substituted cap analogs” (Bioorg Med Chem Lett, 2008).

In one test the test system is HeLa. Description: Translation efficiency in human HeLa cells assessed as luciferase activity. It is filed as functional, cell-based.
The nature of test [1]: mRNA capping efficiency after 2 hrs by gel shift assay relative to control.
The next test has as its system Escherichia phage T7. Description: Effect on Enterobacteria phage T7 RNA polymerase RNA transcription after 2 hrs.

Turning to `CO[C@@H]1[C@H](O)[C@@H](n2c[n+](C)c3c(=O)[nH]c(N)nc32)O[C@H]1COP(=O)([O-])OP(=O)(O)OP(=O)(O)OC[C@H]1O[C@@H](n2cnc3c(=O)[nH]c(N)nc32)[C@H](O)[C@@H]1O`, the outcome in the test on HeLa and with Escherichia phage T7 was Active. Besides, the Activity in test [1] worked out at 52%.
For the molecule `C[n+]1cn([C@@H]2O[C@H](COP(=O)(O)OP(=O)([O-])OP(=O)([O-])OC[C@@H]3O[C@H](n4c[n+](C)c5c(=O)[nH]c(N)nc54)[C@@H](O)[C@H]3O)[C@@H](O)[C@H]2O)c2nc(N)[nH]c(=O)c21`, the outcome in the test on HeLa and in the test with Escherichia phage T7 was Active. For the same molecule, the Activity in test [1] came out at 56%.
On to `C[n+]1cn([C@H]2O[C@@H](COP(=O)([O-])OP(=O)(O)OP(=O)(O)OC[C@H]3O[C@@H](n4cnc5c(=O)[nH]c(N)nc54)[C@H](O)[C@@H]3O)[C@H](O)[C@@H]2O)c2nc(N)[nH]c(=O)c21`, for which the Activity in test [1] was determined as 61%.
For `CO[C@@H]1[C@H](O)[C@@H](n2c[n+](C)c3c(=O)[nH]c(N)nc32)O[C@H]1COP(=O)([O-])OP(=O)(O)OP(=O)([O-])OC[C@H]1O[C@@H](n2c[n+](C)c3c(=O)[nH]c(N)nc32)[C@H](O)[C@@H]1O`, the result in the test with HeLa and with Escherichia phage T7 was Active. In addition, the Activity in test [1] was found to be 51%.
